Measurements: US20080102120A1, “Solid Pharmaceutical Composition Comprising Valsartan” (priority 2004, published 2008)

Experiment: Particle size of valsartan by laser light scattering (Malvern Mastersizer MS 2000, suspension in vegetable oil)
Format: physicochemical
Conditions: for average particle size: Malvern Mastersizer MS 2000 software; for % of particles in the range of 0.02-50 μm: range 0.02-50 μm; for % of particles in the range of 0.02-100 μm: range 0.02-100 μm; for size that 50% of particles were larger than (D50): volume diameter
Text: The term “particle size” as used herein refers to the volume diameter of valsartan particles, as determined by laser light scattering using a Malvern-Mastersizer Apparatus MS 2000. D50 means that 50% of particles (V/V) have a higher volume diameter than the indicated value. The term “valsartan particle” means a particle that contains valsartan or, preferably, a particle that essentially or completely consists of valsartan. The particles to be subjected to the particle size measurement are first suspended in vegetable oil (i.e. sunflower oil) and then subjected to a size determination in a Malvern Mastersizer MS 2000 instrument. Usually, 100-800 mg of substance are dispersed in 5-8 ml of vegetable oil. No solubilizers or surfactants are used. According to manufacturer's information, the Malvern Mastersizers allow for a measurement of particle size distributions in the range of 20 nm to 2000 μm, with a precision of better than 0.5%. Particle sizes are determined by measuring the angular distribution of laser light scattered by a homogeneous suspension of particles. The size distribution is determined from the light scattering data using the theory of light scattering developed by Gustav Mie. The following examples illustrate the invention and are not intended to restrict the scope of the invention in any way. In the following examples, the water content was determined as loss on drying on a Mettler Toledo HR73 halogen moisture analyzer. The particle size was determined in a Malvern Mastersizer MS 2000, using a suspension of valsartan in vegetable oil (sunflower oil of Oljarica Kranj).

size that 10% of particles were larger than [μm] | size that 10% of particles were smaller than [μm] | average particle size [μm] | Particle size distribution, Volume % in range 0.01-2 μm [Volume %] | % of particles in the range of 0.02-50 μm [%] | % of particles in the range of 0.02-100 μm [%] | Particle size distribution, Volume % in range 2-5 μm [Volume %] | Particle size distribution, Volume % in range 5-10 μm [Volume %] | Particle size distribution, Volume % in range 10-20 μm [Volume %] | Particle size distribution, Volume % in range 20-50 μm [Volume %] | Particle size distribution, Volume % in range 50-100 μm [Volume %] | Particle size distribution, Volume % in range 100-150 μm [Volume %] | Particle size distribution, Volume % in range 150-800 μm [Volume %] | size that 50% of particles were larger than (D50) [μm] | % of particles in the range of 0.02-56 μm (range 0.02-56 μm as printed) [%] | SMILES
460.8 | 34.7 | 219 | 0.7 | 15.0 | 30.0 | 1.2 | 1.0 | 2.6 | 9.5 | 15.0 | 13.1 | 56.4 | 179.1 | – | CCCCC(=O)N(Cc1ccc(-c2ccccc2-c2nnn[nH]2)cc1)[C@H](C(=O)O)C(C)C [valsartan (B), N-(1-oxopentyl)-N-{4-[2-(1H-tetrazole-5-yl)phenyl]-benzyl}-L-valine]
304.3 | 10.3 | 123 | 0.9 | 38.1 | 58.1 | 3.3 | 5.5 | 9.3 | 19.1 | 20.0 | 12.4 | 29.4 | 76.6 | – | CCCCC(=O)N(Cc1ccc(-c2ccccc2-c2nnn[nH]2)cc1)[C@H](C(=O)O)C(C)C [valsartan (A), N-(1-oxopentyl)-N-{4-[2-(1H-tetrazole-5-yl)phenyl]-benzyl}-L-valine]
136.2 | 8.2 | 65 | 1.4 | – | 78.5 | 4.8 | 5.7 | 9.4 | 25.9 | 31.3 | 14.1 | 7.3 | 53.4 | 47.2 | CCCCC(=O)N(Cc1ccc(-c2ccccc2-c2nnn[nH]2)cc1)[C@H](C(=O)O)C(C)C [valsartan (C), N-(1-oxopentyl)-N-{4-[2-(1H-tetrazole-5-yl)phenyl]-benzyl}-L-valine]
